The values below come from publication PMC7407158, “Reprogramming of the Antibacterial Drug Vancomycin Results in Potent Antiviral Agents Devoid of Antibacterial Activity” (Pharmaceuticals, 2020).

Values after ≈ are worked out from the molar mass of the structure shown.

In data set [1] the test system is E. faecalis ATCC 51,299 VanB. The data set can be described thus: Broth microdilution MIC, E. faecalis ATCC 51,299 VanB. The format is cell-based. The following applies: Enterococcus faecalis, ATCC51, read-out: In Vitro MIC. The protocol:
(§1) Antibacterial tests were carried out by the broth microdilution method on a panel of eight Gram-positive bacterial strains, using vancomycin and teicoplanin as reference compounds.
A general note: Dilution methods test growth across graded concentrations, often in twofold steps.

Data set [2] relates to S. aureus MSSA ATCC 29213. The data set can be described thus: Broth microdilution MIC, S. aureus MSSA ATCC 29213. The class given is cell-based. The settings on record: Staphylococcus aureus; S. aureus MSSA ATCC 29213; broth microdilution; read-out: In Vitro MIC. The protocol: as §1
For data set [3], the system named is S. epidermidis mecA. The experiment in a line: Broth microdilution MIC, S. epidermidis mecA. The class given is cell-based. The following applies: Staphylococcus epidermidis, read-out: In Vitro MIC. The protocol: as §1
The test system of data set [4] is B. subtilis ATCC 6633. The experiment in a line: Broth microdilution MIC, B. subtilis ATCC 6633. The class given is cell-based. The settings on record: Bacillus subtilis, ATCC6633; B. subtilis ATCC 6633; broth microdilution; read-out: In Vitro MIC. As for the experimental part: as §1
In data set [5] the test system is HeLa, human cervix carcinoma cells. The following applies: read-out: CC50 HeLa; mock-infected HeLa cells, MTS assay.
For data set [6], the system named is S. aureus MRSA ATCC 33591. The data set can be described thus: Broth microdilution MIC, S. aureus MRSA ATCC 33591. The following applies: Staphylococcus aureus, read-out: In Vitro MIC. The format is cell-based. As for the experimental part:
as §1

Data set [7] concerns human coronavirus 229E. The class given is cell-based. The settings on record: 25 µM compound (non-toxic concentration); HEL cells.
For data set [8], the system named is HEL, human embryonic lung fibroblast cells. The settings on record: read-out: CC50 HEL; mock-infected HEL cells, MTS assay.
Data set [9] concerns S. epidermidis ATCC 35984. The data set can be described thus: Broth microdilution MIC, S. epidermidis ATCC 35984. The format is cell-based. The settings on record: Staphylococcus epidermidis, ATCC35984; S. epidermidis ATCC 35984; broth microdilution; read-out: In Vitro MIC. The protocol: as §1
The test system of data set [10] is influenza A or B viruses. The experiment in a line: Anti-influenza virus activity in MDCK cells, MTS assay, overall for the three influenza A or B viruses. The class given is cell-based, Influenza A and B viruses. Background: Tetrazolium assays rely on reduction of a dye to a coloured formazan, in cell work by metabolically active cells.
Data set [11] concerns human coronavirus 229E. The data set can be described thus: Coronavirus 229E virus yield reduction, RT-qPCR of viral RNA in supernatant, HEL cells. The format is cell-based. The following applies: day 4 p.i. The protocol: To assess inhibition of human coronavirus 229E replication, HEL cells were infected and treated with 1:2 serial compound dilutions. The plate contained three virus controls (receiving no compound) and two cell controls (receiving no virus and no compound). At day 4 p.i., supernatants were frozen at −80 °C to determine the virus yield by one-step RT-qPCR assay. Two microliters supernatant was mixed with 11 µl lysis mix containing lysis enhancer and resuspension buffer at a 1:10 ratio (CellsDirect One-Step RT-qPCR kit; Invitrogen), and heated for 10 min at 75 °C. Five microliters of lysate was transferred to a PCR plate containing 9.75 µl RT-qPCR mix (CellsDirect One-Step RT-qPCR) and 0.25 µl Superscript III RT/Platinum Taq enzyme, and coronavirus-229E N-gene specific primers and probe (forward primer 5′-[…] -3′; reverse primer 5′-[…] -3′; probe 5′-FAM-[…]-ZEN-[…] -IBFQ-3′). The RT-qPCR program consisted of 15 min at 50 °C, 2 min at 95 °C, and 50 cycles of 15 s at 95 °C and 45 s at 60 °C. An N-gene plasmid standard was included for absolute quantification.
Background: In qPCR the cycle at which signal appears reflects the starting amount.

The subject of data set [12] is A/PR/8/34 virus. The class given is cell-based, Influenza A virus.
The subject of data set [13] is E. faecalis ATCC 29212. The experiment in a line: Broth microdilution MIC, E. faecalis ATCC 29212. The following applies: Enterococcus faecalis, ATCC29212; E. faecalis ATCC 29212; broth microdilution; read-out: In Vitro MIC. The class given is cell-based. The protocol: as §1
In data set [14] the test system is MDCK cells. The following applies: read-out: CC50 (50% cytotoxic concentration), mock-infected, MTS cell viability assay, three days.
The test system of data set [15] is E. faecalis 15,376 VanA. The experiment in a line: Broth microdilution MIC, E. faecalis 15,376 VanA. The format is cell-based. The settings on record: Enterococcus faecalis, read-out: In Vitro MIC. The protocol:
as §1

In data set [16] the test system is Vero, African Green monkey kidney cells. The settings on record: read-out: CC50 Vero; mock-infected Vero cells, MTS assay.
Data set [17] is described as follows: in vitro. The following applies: human.
Data set [18] concerns Zika virus (strain MR766). The data set can be described thus: CPE reduction, MTS assay, Zika virus in Vero cells. The class given is cell-based. The settings on record: protection against virus-induced CPE, read-out: Antiviral EC50 Zika Virus.
Data set [19] in a line: in vitro. The settings on record: human. This is another data set of the same source.
Data set [20] can be described thus: in vitro. The settings on record: African green monkey.
The subject of data set [21] is yellow fever virus (vaccine strain 17D). The experiment in a line: microbe, parasite or virus in culture. The class given is cell-based. The following applies: Vero, read-out: Antiviral EC50 Yellow Fever Virus.
The test system of data set [22] is Influenza A/H1N1 (A/Ned/378/05). The data set can be described thus: Influenza CPE reduction in MDCK cells, MTS assay, A/H1N1. The format is cell-based. The settings on record: Influenza A virus, H1N1, MDCK, read-out: Antiviral EC50 Influenza A/H1N1.
Data set [23] concerns Influenza A/H3N2 (A/Victoria/361/11). The experiment in a line: Influenza CPE reduction in MDCK cells, MTS assay, A/H3N2. The class given is cell-based. The settings on record: Influenza A virus, H3N2, MDCK, read-out: Antiviral EC50 Influenza A/H3N2.
The subject of data set [24] is respiratory syncytial virus (RSV, strain Long). The experiment in a line: CPE reduction, MTS assay, RSV in HeLa cells. The class given is cell-based. The following applies: human respiratory syncytial virus, read-out: Antiviral EC50 RSV.
The test system of data set [25] is Influenza B (B/Ned/537/05). The experiment in a line: Influenza CPE reduction in MDCK cells, MTS assay, influenza B. The class given is cell-based. The settings on record: Influenza B virus, inhibition of virus-induced CPE by MTS assay, read-out: Antiviral EC50 Influenza B.

Consider `CCCCCCCCCCOCc1cn(CCOCCOCCOCCOCc2cn(C3C(=O)NC(CC(N)=O)C(=O)NC4C(=O)NC5C(=O)NC(C(=O)NC(C(=O)O)c6cc(O)cc(O)c6-c6cc5ccc6O)C(O)c5ccc(c(Cl)c5)Oc5cc4cc(c5O)Oc4ccc(cc4Cl)C3O)nn2)nn1` (stereo not drawn) [Compound 6], for which the MIC (commonly the least concentration at which growth counts as inhibited) in data set [1] stood at 128 µg/mL (≈ 85.5 µM); in data set [2] it was 128 µg/mL (≈ 85.5 µM); in data set [3], 32 µg/mL (≈ 21.4 µM); in data set [4], 32 µg/mL (≈ 21.4 µM); in data set [6] it was 128 µg/mL (≈ 85.5 µM); in data set [9], 32 µg/mL (≈ 21.4 µM). Also, the figures for the MIC in data set [13] and in data set [15] were 32 µg/mL (≈ 21.4 µM) and 128 µg/mL (≈ 85.5 µM), respectively. Further, the CC50 is above 100 µM in data set [5], above 100 µM in [8], 41 µM in data set [14] and above 100 µM in data set [16]. In addition, in [7], the “coronavirus 229E-induced cytopathicity observed microscopically” value is on record as “no coronavirus 229E-induced cytopathicity could be observed microscopically”. Further, the “anti-influenza virus activity (in words)” value in data set [10] is listed as “robust activity”. Further, the “reduction of the viral RNA copy number in the supernatant” value in data set [11] (25 µM compound) came to 1000 fold. Further, in data set [11] (RT-qPCR of supernatant), the “EC99 value for reduction of virus yield” value is listed as 20 µM. For the same molecule, the “virus-induced cytopathic effect (CPE) upon microscopic inspection” value in data set [12] is recorded as “no virus-induced cytopathic effect (CPE) was observed”.

As for `COc1c(C)c2c(c(O)c1C/C=C(\C)CCC(=O)O)C(=O)OC2` [Mycophenolic acid], the CC50 in data set [17], in [19] and in data set [20] was above 100 µM throughout. In addition, the EC50 was 0.8 µM in [18] and 0.7 µM in data set [21].

For `NC(=O)c1ncn([C@@H]2O[C@H](CO)[C@@H](O)[C@H]2O)n1` [Ribavirin], the EC50 was 7 µM in data set [22]; 6.4 µM in data set [23]; 5 µM in data set [24]; 7.2 µM in data set [25]; 119 µM in data set [21]. Besides, the CC50 in [17], in data set [19] and in data set [20] was above 250 µM in each case.
